Assay results: patent US11147781B2, “Methods for alleviating statin myopathy” (priority 2014, dated 2021)

Assays:
[1] = No Observed Adverse Effect Level (NOAEL) for HMB oral ingestion in rats; assay type: in vivo
Protocol: This is an estimated human equivalent of 558 mg/kg and 665 mg/kg for men and women, respectively; assuming a body weight of 150 lbs equates to 38 g (males) and 45 g (females). […] Overall, standard doses of HMB appear to be well-tolerated over long periods of time.

[2] = system: rosuvastatin-induced myalgia and myopathy; assay: Initial assessment of HMB reversal of statin myalgia (single volunteer); assay type: in vivo, human
Protocol: A healthy, fully informed and consenting adult volunteer with severe rosuvastatin-induced myalgia and myopathy and pre-statin LDL of 260 was administered 1 gram HMB three times a day (3 grams/day total) while rosuvastatin therapy was continued. Within 72 hours of the initial HMB administration, statin myalgia/myopathy fully subsided. During brief intervals where HMB treatment was discontinued (i.e., unintentionally skipped doses), the subject reported a return of myalgia, which again subsided upon reinstatement of HMB treatment.

[3] = system: patients with statin-induced myopathy (SIM); assay type: in vivo, human
Protocol: A clinical study was conducted to evaluate the effects of HMB on patients with statin-induced myopathy (SIM). A total of eighteen patients were evaluated for the study with informed written consent obtained. Of the eighteen patients, fourteen (14) ultimately qualified as having true statin myalgia and were enrolled in the study. All patients enrolled were under the care of a board certified cardiologist.
A summary of the enrolled patients and their outcomes is as follows: • 1. All 14 had type 2a or mixed hyperlipidemia. • 2. All 14 had been treated with multiple statin agents, in each case withdrawing from the statin agent due to myalgia/myopathy. • 3. Of the 14 patients enrolled, 4 had elevated CPKs (creatine phosphokinase, a biomarker for myositis/rhabdomyolysis) secondary to SIM. • 4. Five of the 14 patients had undergone prior percutaneous coronary intervention with stents. • 5. One of the 14 patients had undergone prior coronary bypass surgery. • 6. Four of the 14 patients had angiographically documented moderate coronary artery disease not requiring percutaneous coronary intervention (PCI)/coronary bypass. • 7. Four of the 18 patients were disqualified due to the following: • Patient's leg myalgia was secondary to angiographically proven peripheral vascular disease, not SIM and symptoms were consistent with this diagnosis. • Patient's unilateral leg pain was secondary to neuropathy, not SIM. • Patient complained of GI upset on combined statin+3-hydroxy 3-methybutyrate and medication was discontinued. […] All 14 qualified patients remained on combination statin (in some cases with Zetia to achieve target) plus HMB therapy after the initial duration of the study. As noted, of those who had previously discontinued statin therapy, all had been tried on multiple statin agents without success. • 9. Follow up was conducted with all patients including out-patient visits and phone conversation. • 10.
The free acid form was used in one patient who experienced major CPK elevations (900-1000 IU/L range) and disabling myalgia on statins.
For this study, patients were evaluated using multiple laboratories with variable lab normal ranges, which are included. In the patient population as a whole, the full spectrum of SIM is presented, including statin myalgia […] CPK elevation (myositis or rhabdomyolysis depending on severity), elevation of CPK without myalgia, post-statin elevation of CPK with and without pain, post-statin myalgia without CPK elevation, and, finally, statin-induced muscle weakness without myalgia. Also represented were other statin-induced side effects such as short-term memory loss and glucose intolerance.

[4] = system: statin-induced short-term memory loss; assay: Treatment of statin-induced short-term memory loss with HMB; assay type: in vivo, human; conditions: within two months of HMB treatment, statin continued
Source text: HMB administration is used to treat short-term memory loss, an unusual side effect resulting from statin administration. […] Protocol: Patient describes short term memory loss after starting statin. Initiate the following steps: • 1. Assess memory loss with standardized neuro-psychometric testing as baseline status; • 2. Initiate calcium HMB monohydrate, 2 g twice daily; or calcium free acid gel, 1 g three times daily; • 3. Continue statin therapy with no dose change; • 4. Obtain baseline lab (lipid panel, CPK, liver function/metabolic profile) and repeat in 12 weeks; • 5. Reassess memory status in 12 weeks repeating psycho-metric testing and comparing to baseline study.

[5] = system: statin-induced abnormal liver function; assay: Treatment of statin-induced abnormal liver function using HMB; assay type: in vivo, human; conditions: within 3 months of beginning HMB treatment
Protocol: Elevated liver function tests (LFTs) are common in statin users. The presence of elevated transaminases, commonly the transaminases alanine transaminase (ALT or SGPT) and aspartate transaminase (AST or SGOT), are indicators of liver damage. Terms for this condition include transaminasemia and transaminitis, Normal ranges for both ALT and AST are 8-40 U/L with mild transaminesemia noted to the upward numerical limit of 250 U/L. Here, HMB is administered to normalize abnormal liver function tests and reverse transaminitis. […] Once enrolled, initiate the following steps: • 1. Initiate calcium HMB monohydrate, 2 g twice daily or HMB free acid (gel form), 1 g three times daily; • 2. Continue statin agent with no dose change; • 3. Repeat liver panel in 3 months and compare to baseline.

[6] = system: statin-induced glucose intolerance; assay: Treatment of statin-induced glucose intolerance using HMB; assay type: in vivo, human
Source text: Glucose intolerance with hyperglycemia/increased risk for diabetes, probably related to insulin resistance, has been reported in statin users, especially lipophilic statins such as […], less so in hydrophilic statins such as pravastatin. Here, HMB administration is used to treat statin-related glucose intolerance. Protocol: type 1, 1.5, and 2 diabetics with hemoglobin A1C at or exceeding 6.5% are eligible; also eligible are hyperglycemic/increased risk for diabetes patients not on diabetic treatment but with a hemoglobin A1C at or exceeding 5.7%; patients with critical value fasting blood glucose and hemoglobin A1C levels are excluded. Once enrolled, the following steps are initiated: • 1. Continue statin and diabetic medications with dosages unchanged; • 2. Initiate calcium HMB monohydrate, 2 g twice daily, or HMB free acid (gel form), 1 g three times daily; • 3. Repeat fasting blood glucose and hemoglobin A1C in 3 weeks and 6 weeks;

[7] = system: statin-related cumulative trauma disorder; assay: Treatment of statin-related cumulative trauma disorder using HMB; assay type: in vivo, human; conditions: within 6 weeks of beginning HMB treatment
Source text: Cumulative trauma disorder, also known as chronic overuse syndrome, is characterized by muscle damage due to performing repetitive activities over time. Statin users are particularly vulnerable to cumulative trauma disorder due to impaired ability to heal chronically micro-traumatized muscle. Here, HMB is used to treat cumulative trauma disorder. Protocol: Patients are enrolled if they qualify with symptoms that include chronic muscle weakness and pain complemented by an occupation or lifestyle lending itself to chronic overuse syndrome (e.g., construction workers, etc.). All patients are currently on statins. Initial documentation of strength levels and pain severity are required. Pain is evaluated using the Verbal Numerical Rating Scale (VNRS). Strength is measured using the Manual Muscle Testing/5-point scale. Additionally, grip strength is measured using a dynamometer. Once enrolled, the following steps are initiated: • 1. Obtain baseline lab including lipid panel and CPK-MM levels; • 2. Continue statin with dose unchanged; • 3. Continue repetitive activity in question at the same level of intensity; • 4. […]

[8] = cited from earlier work
[9] = cited from earlier work; remark: listed apart in the source

Compound: CC(C)(O)CC(=O)O [HMB, β-hydroxy β-methylbutyrate]
- human equivalent of NOAEL assuming a body weight of 150 lbs ([1]; females): 45 g
- human equivalent of NOAEL assuming a body weight of 150 lbs ([1]; males): 38 g
- time until statin myalgia/myopathy fully subsided ([2]; 1 gram HMB three times a day, rosuvastatin continued, one volunteer): ≤ 72 h
- benefit of increased HMB dosage ([2]; increase to 6 grams/day): no additional benefit
- short term memory loss ([3]; Patient F-6, atorvastatin 40 mg + Zetia 10 mg + 2 g BID, 2-month follow-up): mostly resolved
- response of SIM symptoms ([3]; all 14 qualifying patients, combination statin plus HMB): complete resolution of SIM symptoms
- SIM-related myalgia ([3]; the disqualified patient with GI upset, after HMB treatment): resolved completely
- short-term memory loss [4]: reversal of some or all short-term memory loss
- ALT/SGPT [5]: less than 40 U/L
- AST/SGOT [5]: less than 40 U/L
- fasting blood glucose ([6]; diabetic patients, within 6 weeks): less than 130 mg %
- hemoglobin A1C ([6]; diabetics, within 6 weeks of beginning HMB treatment): below 6.5%
- fasting blood glucose ([6]; hyperglycemic/non-diabetic management patients, within 6 weeks): less than 100 mg %
- hemoglobin A1C ([6]; hyperglycemics on dietary management, within 6 weeks): < 5.7%
- pain severity [7]: reduced pain severity
- strength levels [7]: increased strength levels
- toxicological parameters in serum ([8]; 3 g HMB daily for up to 8 weeks, youth and older persons): failed to alter toxicological parameters in serum
- safety on long administration ([8]; 3 g daily, one year of administration): safe
- toxic effects on serum parameters ([8]; approximately 6 g HMB daily (78 mg/kg) for one month, untrained young males subject to exercise): did not show any toxic effects
- tolerability ([8]; standard doses, long periods of time): well-tolerated
- half-life ([9]; in vivo): relatively short
- time to peak levels ([9]; in vivo): quickly
- area under blood level curve ([9]; when ingested with glucose): reduced
